The values below come from patent publication US20250275539A1, “APYRASE INHIBITORS” (Texas Crop Science, Inc., priority 2024, published 2025).

SMILES strings stand for the structures.

The test system of this experiment is apyrase. Put plainly: Apyrase inhibition assay (screen for apyrase inhibitors, phosphate release read at 630 nm). The class given is biochemical. The note with it: inhibitor conc at 1 mM (10 μl added), 3 mM ATP, pH 6.5, room temperature 1 hr. How it is done: Apyrase inhibitors useful as enhancers of pesticidal activity are assessed using an in vitro assay. The method of Windsor, Bio Techniques 33:1024-1030 (November 2002) was used as follows
• 96 well plates were used for the assay: (Greiner bio-one: REF-655901-96 well, PS, F-bottom, Clear, Non-binding)
• Reaction Buffer: 60 mM Hepes; 3 mM MgCl2, 3 mM CaCl2) and 3 mM ATP (pH 6.5) • Development Buffer A: 2% aqueous ammonium molybdate • Development Buffer B: 11% ascorbic acid in 37.5% TCA in water • Stop buffer C: 2% trisodium citrate in 2% acetic acid solution in water
• Add 100 μl of reaction buffer to each well. • Add 10 μl of DMSO (control) or inhibitor/compound or compounds such as N1915 or orthovanadate to each well. (use inhibitor conc at 1 mM; orthovanadate at 2 mM and N1915 at 1 mM) • Add 10 μl of apyrase (concentration based on optimization—Dilute 1 U/μl enzyme to different concentrations such as 0.1 U, 0.05 U, 0.0025, 0.001 U, 0.0005 U—to find a good range) • Incubate plate at room temperature for 1 hr • Mix development buffer A and B in the ratio of 1:1.5 (just before use). • Add 50 μl of A: B mix in each well (incubate for 2 mins) • Add 50 μl of C in each well • Measure/Read Absorbance of plate @630 nm
Inhibitory data for the apyrase assay described above are provided for selected compounds in Table 3. D is inhibition of 0% to 10%, C is inhibition from 10% to 20%, B is inhibition from 20% to 30%, and A is inhibition above 30%. Blank entries signify compounds that were not tested.
As to `CCCc1ccc(S(=O)(=O)Nc2ccc(O)c(C(=O)O)c2)cc1` [Compound A-26, 2-hydroxy-5-((4-propylphenyl)sulfonamido) benzoic acid], the Inhibition result is reported as “B (B is inhibition from 20% to 30%)”.
On to `CCCc1ccc(S(=O)(=O)Nc2ccccc2C(F)(F)F)cc1` [Compound A-73, 4-propyl-N-(2-(trifluoromethyl)phenyl) benzenesulfonamide], for which the Inhibition result is on record as “D (D is inhibition of 0% to 10%)”.
Turning to `O=S(=O)(Nc1cc(-c2cccnc2)n[nH]1)c1ccc(-c2ccccc2)cc1` [Compound A-14, N-(3-(pyridin-3-yl)-1H-pyrazol-5-yl)-[1,1′-biphenyl]-4-sulfonamide], the Inhibition result is reported as “D (D is inhibition of 0% to 10%)”.
For `Cl.NCCNS(=O)(=O)c1ccc(-c2ccccc2)cc1` [Compound A-15, N-(2-aminoethyl)-[1,1′-biphenyl]-4-sulfonamide hydrochloride] the value was “D (D is inhibition of 0% to 10%)”; for `CCCc1ccc(S(=O)(=O)Nc2ccc(-c3ccnc(C)n3)cc2)cc1` [Compound A-40, N-(4-(2-methylpyrimidin-4-yl)phenyl)-4-propylbenzenesulfonamide], “D (D is inhibition of 0% to 10%)”; for `CCCc1ccc(S(=O)(=O)Nc2ccccc2Br)cc1` [Compound A-55, N-(2-bromophenyl)-4-propylbenzenesulfonamide], “D (D is inhibition of 0% to 10%)”.
As for `Cc1cccc(NS(=O)(=O)c2ccccc2)c1` [Compound A-57, N-(m- tolyl)benzenesulfonamide], the entry is “D (D is inhibition of 0% to 10%)”; as for `CCCc1ccc(S(=O)(=O)Nc2ccc(NC(=O)C3CC3)cc2)cc1` [Compound A-31, N-(4-((4-propylphenyl)sulfonamido)phenyl)cyclopropanecarbox-amide], “D (D is inhibition of 0% to 10%)”; as for `Cc1cccc(NS(=O)(=O)c2ccc(C=CC(=O)O)cc2)c1` [Compound A-61, 3-(4-(N-(m-tolyl)sulfamoyl)phenyl)acrylic acid], “D (D is inhibition of 0% to 10%)”.
As for `O=S(=O)(Nc1ncccn1)c1ccc(-c2ccccc2)cc1` [Compound A-20, N-(pyrimidin-2-yl)-[1,1′-biphenyl]-4-sulfonamide], the entry is “D (D is inhibition of 0% to 10%)”; as for `CCCc1ccc(S(=O)(=O)Nc2cc(S(=O)(=O)N3CCCCC3)ccc2C)cc1` [Compound A-90, N-(2-methyl-5-(piperidin-1-ylsulfonyl)phenyl)-4-propylbenzenesulfonamide], “A (A is inhibition above 30%)”; as for `CCCc1ccc(S(=O)(=O)Nc2cccc(-c3nnnn3C3CC3)c2)cc1` [Compound A-28, N-(3-(1-cyclopropyl-1H-tetrazol-5-yl)phenyl)-4-propylbenzenesulfonamide], “D (D is inhibition of 0% to 10%)”.
For the compound `CCCc1ccc(S(=O)(=O)Nc2ccc(C(=O)O)cc2)cc1` [Compound A-44, 4-((4-propylphenyl)sulfonamido) benzoic acid], the Inhibition entry is reported as “D (D is inhibition of 0% to 10%)”.
Consider `CCCc1ccc(S(=O)(=O)Nc2ccc(S(=O)(=O)N=C3CCCCCN3)cc2)cc1` [Compound A-52, N-(azepan-2-ylidene)-4-((4-propylphenyl)sulfonamido) benzenesulfonamide], for which the Inhibition entry is “C (C is inhibition from 10% to 20%)”.
With `CCCc1ccc(S(=O)(=O)Nc2cc(C(=O)OC)ccc2S(N)(=O)=O)cc1` [Compound A-25, methyl 3-((4-propylphenyl)sulfonamido)-4-sulfamoylbenzoate], the Inhibition entry is “D (D is inhibition of 0% to 10%)”.
For `CCCc1ccc(S(=O)(=O)Nc2cc(OC)c(OC)cc2C(=O)O)cc1` [Compound A-45, 4,5-dimethoxy-2-((4-propylphenyl)sulfonamido) benzoic acid] the value was “C (C is inhibition from 10% to 20%)”; for `CCCc1ccc(S(=O)(=O)Nc2cccc(F)c2C(=O)O)cc1` [Compound A-42, 2-fluoro-6-((4-propylphenyl)sulfonamido) benzoic acid], “B (B is inhibition from 20% to 30%)”.
As for `CCCc1ccc(S(=O)(=O)Nc2ccccc2CC(=O)NC)cc1` [Compound A-41, N-methyl-2-(2-((4-propylphenyl)sulfonamido)phenyl)acetamide], the entry is “A (A is inhibition above 30%)”; as for `CCCc1ccc(S(=O)(=O)Nc2ccc(-c3nc(C)cc(=O)[nH]3)cc2)cc1` [Compound A-120, N-(4-(4-methyl-6-oxo-1,6-dihydropyrimidin-2-yl)phenyl)-4-propylbenzenesulfonamide], “B (B is inhibition from 20% to 30%)”; as for `CCN1CCCC(NS(=O)(=O)c2ccc(-c3ccccc3)cc2)C1` (centres unmarked) [Compound A-117, N-(1-ethylpiperidin-3-yl)-[1,1′-biphenyl]-4-sulfonamide], “D (D is inhibition of 0% to 10%)”.
For `CCCc1ccc(S(=O)(=O)Nc2cc(Cl)ccc2Sc2nncn2C)cc1` [Compound A-67, N-(5-chloro-2-((4-methyl-4H-1,2,4-triazol-3-yl)thio)phenyl)-4-propylbenzenesulfonamide] the value was “C (C is inhibition from 10% to 20%)”.
With `CCCc1ccc(S(=O)(=O)Nc2ccc(S(=O)(=O)N(C)C)cc2)cc1` [Compound A-97, N,N-dimethyl-4-((4-propylphenyl)sulfonamido) benzenesulfonamide], the Inhibition entry is “C (C is inhibition from 10% to 20%)”.
As for `Cn1ccnc(NS(=O)(=O)c2ccc(-c3ccccc3)cc2)c1=O` [Compound A-23, N-(4-methyl-3-oxo-3,4-dihydropyrazin-2-yl)-[1,1′-biphenyl]-4-sulfonamide], the entry is “B (B is inhibition from 20% to 30%)”; as for `CCCc1ccc(S(=O)(=O)Nc2ccccc2-c2nncn2C)cc1` [Compound A-107, N-(2-(4-methyl-4H-1,2,4-triazol-3-yl)phenyl)-4-propylbenzenesulfonamide], “C (C is inhibition from 10% to 20%)”; as for `CCCc1ccc(S(=O)(=O)Nc2ccc(C)c(S(N)(=O)=O)c2)cc1` [Compound A-104, N-(4-methyl-3-sulfamoylphenyl)-4-propylbenzenesulfonamide], “D (D is inhibition of 0% to 10%)”.
As for `CCCc1ccc(S(=O)(=O)Nc2ccc(S(=O)(=O)NC)cc2)cc1` [Compound A-80, N-methyl-4-((4-propylphenyl)sulfonamido) benzenesulfonamide], the entry is “D (D is inhibition of 0% to 10%)”; as for `Cc1cccc(NS(=O)(=O)c2ccc(F)cc2)c1` [Compound A-58, 4-fluoro-N-(m-tolyl)benzenesulfonamide], “D (D is inhibition of 0% to 10%)”.
For `Cc1cccc(NS(=O)(=O)c2ccc(NC(=O)Nc3ccc([N+](=O)[O-])cc3)cc2)c1` [Compound A-98, 4-(3-(4-nitrophenyl)ureido)-N-(m-tolyl)benzenesulfonamide] the value was “A (A is inhibition above 30%)”; for `CCCc1ccc(S(=O)(=O)Nc2ccc(S(=O)(=O)N(C)C3CCCCC3)cc2)cc1` [Compound A-79, N-cyclohexyl-N-methyl-4-((4-propylphenyl)sulfonamido) benzenesulfonamide], “A (A is inhibition above 30%)”.
